Results reported in ChEMBL document CHEMBL1144798, “New chemotypes for cathepsin K inhibitors” (Bioorg Med Chem Lett, 2008).

Key:
Cathepsin S = Cathepsin S (Homo sapiens, UniProt P25774); test: Inhibition of human recombinant cathepsin S by fluorescence assay
Procathepsin L = Procathepsin L (Homo sapiens, UniProt P07711); test: Inhibition of human recombinant cathepsin L by fluorescence assay
Cathepsin K = biological target: T1, Cathepsin K (Homo sapiens, UniProt P43235); test: Inhibition of human recombinant cathepsin K by fluorescence assay
T1 sequence (P43235 whole entry): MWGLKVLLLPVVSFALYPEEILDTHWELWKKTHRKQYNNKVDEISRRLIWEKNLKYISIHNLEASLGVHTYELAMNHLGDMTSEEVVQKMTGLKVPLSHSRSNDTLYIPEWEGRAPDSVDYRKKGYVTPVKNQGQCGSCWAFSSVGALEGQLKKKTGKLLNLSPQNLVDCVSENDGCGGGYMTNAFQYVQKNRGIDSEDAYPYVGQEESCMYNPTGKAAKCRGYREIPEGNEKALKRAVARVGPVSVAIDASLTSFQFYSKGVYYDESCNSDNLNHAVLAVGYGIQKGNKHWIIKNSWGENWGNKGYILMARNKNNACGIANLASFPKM

Sequence of Procathepsin L (P07711 whole entry): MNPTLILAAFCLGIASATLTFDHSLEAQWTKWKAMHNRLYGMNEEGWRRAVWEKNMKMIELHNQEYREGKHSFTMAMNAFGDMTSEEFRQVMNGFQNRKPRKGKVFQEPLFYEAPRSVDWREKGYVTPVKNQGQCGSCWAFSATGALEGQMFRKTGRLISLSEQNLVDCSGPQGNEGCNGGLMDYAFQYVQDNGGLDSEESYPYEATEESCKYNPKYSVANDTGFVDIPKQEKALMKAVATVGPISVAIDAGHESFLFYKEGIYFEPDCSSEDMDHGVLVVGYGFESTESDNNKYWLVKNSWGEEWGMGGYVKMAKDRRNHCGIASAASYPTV
Sequence of Cathepsin S (P25774 whole entry): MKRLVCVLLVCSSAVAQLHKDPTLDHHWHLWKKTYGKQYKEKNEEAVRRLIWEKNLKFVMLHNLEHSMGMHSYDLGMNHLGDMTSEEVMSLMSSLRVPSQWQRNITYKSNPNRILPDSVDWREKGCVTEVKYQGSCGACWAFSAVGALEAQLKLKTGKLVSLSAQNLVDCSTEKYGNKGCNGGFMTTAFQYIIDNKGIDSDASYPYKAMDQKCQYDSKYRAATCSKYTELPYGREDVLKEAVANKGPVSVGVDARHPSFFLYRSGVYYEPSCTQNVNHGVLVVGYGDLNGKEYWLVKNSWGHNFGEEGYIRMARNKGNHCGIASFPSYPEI

Row | IC50 (Cathepsin S) [nM] | IC50 (Procathepsin L) [nM] | IC50 (Cathepsin K) [nM] | SMILES
1 | 840 | 150 | 3.2 | CC(C)(C)CNc1nc(C#N)ncc1C#CCN1CCc2ccccc2C1
2 | 760 | 980 | 7.1 | CN1CCN(c2ccc(CC#Cc3cnc(C#N)nc3NCC(C)(C)C)cc2)CC1
3 | 800 | > 1000 | 3.7 | CC(C)(C)CNc1nc(C#N)ncc1C#CCN1CCN(S(=O)(=O)CCCCl)CC1
4 | > 1000 | > 1000 | 8.6 | CC(C)(C)CN(Cc1ccc(C#CCn2cncn2)cc1)c1ccnc(C#N)n1
5 | > 1000 | > 1000 | 6.4 | CC(=O)N1CCN(CC#Cc2ccc(CN(CC(C)(C)C)c3ccnc(C#N)n3)cc2)CC1
6 | > 1000 | > 1000 | 3.6 | CC(C)(C)CN(Cc1ccc(C#CCN2CCC(N3CCCCC3)CC2)cc1)c1ccnc(C#N)n1
7 | > 1000 | > 1000 | 7.3 | CC(C)(C)CN(Cc1ccc(C#CCN2CCCCC2)cc1)c1ccnc(C#N)n1
8 | > 1000 | > 1000 | 69 | CC(C)(C)CN(Cc1ccccc1)c1ccnc(C#N)n1
9 | > 1000 | > 1000 | 3.8 | CN1CCN(CC#Cc2ccc(CN(CC(C)(C)C)c3ccnc(C#N)n3)cc2)CC1
10 | 68 | 190 | 7.2 | CC(C)(C)CNc1nc(C#N)ncc1C#CCn1cnc(Cl)c1Cl
11 | > 1000 | > 1000 | 19 | CC(C)(C)CN(Cc1ccc(I)cc1)c1ccnc(C#N)n1
12 | > 1000 | > 1000 | 7.1 | COc1ccc(S(=O)(=O)N2CCN(CC#Cc3cnc(C#N)nc3NCC(C)(C)C)CC2)cc1
13 | > 1000 | > 1000 | 4.8 | CC(C)(C)CN(Cc1ccc(Cn2cncn2)cc1)c1ccnc(C#N)n1
14 | 460 | 1000 | 8.6 | CC(C)(C)CNc1nc(C#N)ncc1C#CCOc1cccnc1
15 | 920 | > 1000 | 10 | CC(C)(C)CNc1nc(C#N)ncc1C#CCN1Cc2ccccc2C1
